Here are results for two compounds from patent publication US20070179125A1, “Aminopyrimidines useful as kinase inhibitors” (priority 2005, published 2007).

Type in all cases: biochemical
One assay has as its target Aurora-1 (Aurora B) (Homo sapiens, UniProt Q96GD4). The assay can be described thus: Aurora-1 (Aurora B) inhibition assay (radiometric). The note with it: 800 μM ATP, Kemptide, 25° C. As for the experimental part:
An assay buffer solution was prepared which consisted of 25 mM HEPES (pH 7.5), 10 mM MgCl2, 0.1% BSA and 10% glycerol. A 22 nM Aurora-B solution, also containing 1.7 mM DTT and 1.5 mM Kemptide (LRRASLG), was prepared in assay buffer. To 22 μL of the Aurora-B solution, in a 96-well plate, was added 2 μl of a compound stock solution in DMSO and the mixture allowed to equilibrate for 10 minutes at 25° C. The enzyme reaction was initiated by the addition of 16 μl stock [γ-^33P]-ATP solution (˜20 nCi/μL) prepared in assay buffer, to a final assay concentration of 800 μM. The reaction was stopped after 3 hours by the addition of 16 μL 500 mM phosphoric acid and the levels of ^33P incorporation into the peptide substrate were determined by the following method.
A phosphocellulose 96-well plate (Millipore, Cat no. MAPHNOB50) was pre-treated with 100 μL of a 100 mM phosphoric acid prior to the addition of the enzyme reaction mixture (40 μL). […] Levels of non-enzyme catalyzed background radioactivity were determined by adding 16 μL of the 500 mM phosphoric acid to control wells, containing all assay components (which acts to denature the enzyme), prior to the addition of the [γ-^33P]-ATP solution. Levels of enzyme catalyzed ^33P incorporation were calculated by subtracting mean background counts from those measured at each inhibitor concentration. […]

Another assay deals with T1, JAK3 (Homo sapiens, UniProt P52333).
T1 sequence (P52333 1-1124): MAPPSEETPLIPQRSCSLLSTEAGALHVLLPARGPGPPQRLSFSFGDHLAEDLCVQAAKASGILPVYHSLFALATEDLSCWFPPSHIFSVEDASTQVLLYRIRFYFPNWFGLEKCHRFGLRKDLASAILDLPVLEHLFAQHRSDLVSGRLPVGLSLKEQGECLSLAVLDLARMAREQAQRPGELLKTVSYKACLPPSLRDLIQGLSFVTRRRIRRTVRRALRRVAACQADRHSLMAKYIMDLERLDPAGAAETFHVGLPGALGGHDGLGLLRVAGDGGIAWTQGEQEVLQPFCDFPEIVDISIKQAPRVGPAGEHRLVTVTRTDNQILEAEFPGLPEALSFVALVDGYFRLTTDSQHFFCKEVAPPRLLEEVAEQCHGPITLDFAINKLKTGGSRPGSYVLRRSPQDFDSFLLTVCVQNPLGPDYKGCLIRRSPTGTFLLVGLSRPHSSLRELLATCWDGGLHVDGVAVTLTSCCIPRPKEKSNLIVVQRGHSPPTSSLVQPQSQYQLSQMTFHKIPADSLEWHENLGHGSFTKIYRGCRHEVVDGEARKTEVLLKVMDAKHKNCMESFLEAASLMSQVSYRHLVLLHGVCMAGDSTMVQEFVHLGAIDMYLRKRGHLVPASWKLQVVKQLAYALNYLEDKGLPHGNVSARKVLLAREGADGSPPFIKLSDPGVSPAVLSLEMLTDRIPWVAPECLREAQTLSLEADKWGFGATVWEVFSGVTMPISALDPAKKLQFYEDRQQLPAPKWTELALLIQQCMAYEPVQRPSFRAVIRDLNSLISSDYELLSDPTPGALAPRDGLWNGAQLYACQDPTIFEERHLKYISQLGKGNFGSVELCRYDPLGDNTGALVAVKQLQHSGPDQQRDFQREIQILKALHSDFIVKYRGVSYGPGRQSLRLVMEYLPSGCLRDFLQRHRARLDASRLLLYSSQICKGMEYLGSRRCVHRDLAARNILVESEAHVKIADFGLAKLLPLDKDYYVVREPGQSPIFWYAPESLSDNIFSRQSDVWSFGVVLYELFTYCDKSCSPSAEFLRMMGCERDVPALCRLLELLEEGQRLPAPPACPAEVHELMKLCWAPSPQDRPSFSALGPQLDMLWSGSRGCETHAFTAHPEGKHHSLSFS
The assay can be described thus: JAK3 inhibition assay. The following applies: 5 μM ATP, 1 μM poly(Glu)4Tyr, 1 nM JAK3, 25° C. As for the experimental part: (§1) Compounds were screened for their ability to inhibit JAK using the assay shown below. Reactions were carried out in a kinase buffer containing 100 mM HEPES (pH 7.4), 1 mM DTT, 10 mM MgCl2, 25 mM NaCl, and 0.01% BSA.
(§2) Substrate concentrations in the assay were 5 μM ATP (200 uCi/μmole ATP) and 1 μM poly(Glu)4Tyr. Reactions were carried out at 25° C. and 1 nM JAK3.
(§3) To each well of a 96 well polycarbonate plate was added 1.5 μl of a candidate JAK3 inhibitor along with 50 μl of kinase buffer containing 2 μM poly(Glu)4Tyr and 10 μM ATP. This was then mixed and 50 μl of kinase buffer containing 2 nM JAK3 enzyme was added to start the reaction. After 20 minutes at room temperature (25 C), the reaction was stopped with 50 μl of 20% trichloroacetic acid (TCA) that also contained 0.4 mM ATP. The entire contents of each well were then transferred to a 96 well glass fiber filter plate using a TomTek Cell Harvester. After washing, 60 μl of scintillation fluid was added and ^33P incorporation detected on a Perkin Elmer TopCount.

A further assay deals with T2, human Itk kinase (Homo sapiens, UniProt Q08881).
T2 sequence (Q08881 1-620): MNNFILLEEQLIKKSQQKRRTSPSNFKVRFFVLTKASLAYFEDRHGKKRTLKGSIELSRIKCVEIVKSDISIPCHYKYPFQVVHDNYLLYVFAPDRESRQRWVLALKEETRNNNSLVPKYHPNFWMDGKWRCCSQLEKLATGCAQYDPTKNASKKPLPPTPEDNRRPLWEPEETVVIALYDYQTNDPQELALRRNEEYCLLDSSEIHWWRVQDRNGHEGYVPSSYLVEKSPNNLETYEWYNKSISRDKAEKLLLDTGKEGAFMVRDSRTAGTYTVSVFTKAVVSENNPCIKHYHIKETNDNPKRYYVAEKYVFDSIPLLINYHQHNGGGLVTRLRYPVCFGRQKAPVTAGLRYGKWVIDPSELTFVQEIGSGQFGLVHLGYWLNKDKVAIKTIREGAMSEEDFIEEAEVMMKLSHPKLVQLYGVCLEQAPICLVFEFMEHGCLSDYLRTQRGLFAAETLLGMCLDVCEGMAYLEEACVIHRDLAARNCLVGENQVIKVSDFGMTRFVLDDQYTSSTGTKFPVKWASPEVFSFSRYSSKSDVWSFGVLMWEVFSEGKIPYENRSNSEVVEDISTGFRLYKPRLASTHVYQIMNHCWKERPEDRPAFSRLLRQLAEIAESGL
The assay can be described thus: Itk inhibition assay, radioactivity-based. The note with it: Ki(app); 7.5 μM ATP, 3 μM SAM68 peptide, 50 nM Itk, 25° C. As for the experimental part:
The compounds of the present invention were evaluated as inhibitors of human Itk kinase using a radioactivity-based assay.
Assays were carried out in a mixture of 20 mM MOPS (pH 7.0), 10 mM MgCl2, 0.1% BSA and 1 mM DTT. Final substrate concentrations in the assay were 7.5 μM [γ-^33P]ATP (400 μCi ^33P ATP/μmol ATP, Amersham Pharmacia Biotech/Sigma Chemicals) and 3 μM peptide (SAM68 protein Δ332-443). Assays were carried out at 25° C. in the presence of 50 nM Itk. An assay stock buffer solution was prepared containing all of the reagents listed above, with the exception of ATP and the test compound of interest. 50 μL of the stock solution was placed in a 96 well plate followed by addition of 2 μL of DMSO stock containing serial dilutions of the test compound (typically starting from a final concentration of 50 μM with 2-fold serial dilutions) in duplicate (final DMSO concentration 2%). The plate was pre-incubated for 10 minutes at 25° C. and the reaction initiated by addition of 50 μL [γ-^33P]ATP (final concentration 7.5 μM).
The reaction was stopped after 10 minutes by the addition of 100 μL 0.2M phosphoric acid+0.01% TWEEN 20. […]
Ki(app) data were calculated from non-linear regression analysis of the initial rate data using the Prism software package (GraphPad Prism version 3.0cx for Macintosh, GraphPad Software, San Diego Calif., USA).

Another assay concerns the target JAK-2 enzyme (Homo sapiens, UniProt O60674). The assay can be described thus: JAK2 inhibition assay. The following applies: 12 μM ATP, 15 μM poly(Glu)4Tyr. As for the experimental part: as §1, §2, §3
The assays are as described above in Example 3 except that JAK-2 enzyme is used, the final poly(Glu)4Tyr concentration is 15 μM, and final ATP concentration is 12 μM.

A further assay has as its target T3, Aurora-2 (Aurora A) (Homo sapiens, UniProt O14965).
T3 sequence (O14965 1-403): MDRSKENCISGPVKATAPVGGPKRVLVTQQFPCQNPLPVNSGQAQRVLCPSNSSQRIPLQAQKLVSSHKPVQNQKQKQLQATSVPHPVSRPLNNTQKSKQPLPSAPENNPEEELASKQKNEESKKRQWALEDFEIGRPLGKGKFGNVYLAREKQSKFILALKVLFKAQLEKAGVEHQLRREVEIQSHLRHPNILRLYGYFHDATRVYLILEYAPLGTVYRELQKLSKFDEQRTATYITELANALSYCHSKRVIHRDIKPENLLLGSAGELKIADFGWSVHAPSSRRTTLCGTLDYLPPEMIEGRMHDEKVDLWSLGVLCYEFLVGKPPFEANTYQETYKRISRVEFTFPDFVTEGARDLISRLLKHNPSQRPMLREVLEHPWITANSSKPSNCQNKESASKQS
Briefly: Aurora-2 (Aurora A) inhibition assay, coupled enzyme. The note with it: 400 μM ATP, 570 μM Kemptide, 40 nM Aurora-2, 30° C. As for the experimental part: Compounds were screened for their ability to inhibit Aurora-2 using a standard coupled enzyme assay (Fox et al., Protein Sci., (1998) 7, 2249). Assays were carried out in a mixture of 100 mM Hepes (pH7.5), 10 mM MgCl2, 1 mM DTT, 25 mM NaCl, 2.5 mM phosphoenolpyruvate, 300 μM NADH, 30 μg/ml pyruvate kinase and 10 μg/ml lactate dehydrogenase. Final substrate concentrations in the assay are 400 μM ATP (Sigma Chemicals) and 570 μM peptide (Kemptide, American Peptide, Sunnyvale, Calif.). Assays were carried out at 30° C. and in the presence of 40 nM Aurora-2.
An assay stock buffer solution was prepared containing all of the reagents listed above, with the exception of Aurora-2 and the test compound of interest. 55 μl of the stock solution was placed in a 96 well plate followed by addition of 2 μl of DMSO stock containing serial dilutions of the test compound (typically starting from a final concentration of 7.5 μM). The plate was preincubated for 10 minutes at 30° C. and the reaction initiated by addition of 10 μl of Aurora-2. Initial reaction rates were determined with a Molecular Devices SpectraMax Plus plate reader over a 10 minute time course. IC50 and Ki data were calculated from non-linear regression analysis using the Prism software package (GraphPad Prism version 3.0cx for Macintosh, GraphPad Software, San Diego Calif., USA).

Chain of Aurora-1 (Aurora B) (Q96GD4 whole entry, species assumed): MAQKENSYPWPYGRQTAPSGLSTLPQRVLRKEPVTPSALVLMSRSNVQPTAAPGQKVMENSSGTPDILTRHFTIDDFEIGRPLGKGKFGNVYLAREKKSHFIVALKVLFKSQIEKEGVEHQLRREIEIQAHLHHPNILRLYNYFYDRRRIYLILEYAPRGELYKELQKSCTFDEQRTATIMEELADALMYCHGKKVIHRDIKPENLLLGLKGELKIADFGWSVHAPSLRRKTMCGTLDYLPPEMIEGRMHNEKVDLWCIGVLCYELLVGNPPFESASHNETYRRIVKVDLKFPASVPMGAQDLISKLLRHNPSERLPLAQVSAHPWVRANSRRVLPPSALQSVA
Chain of JAK-2 enzyme (O60674 whole entry, species assumed): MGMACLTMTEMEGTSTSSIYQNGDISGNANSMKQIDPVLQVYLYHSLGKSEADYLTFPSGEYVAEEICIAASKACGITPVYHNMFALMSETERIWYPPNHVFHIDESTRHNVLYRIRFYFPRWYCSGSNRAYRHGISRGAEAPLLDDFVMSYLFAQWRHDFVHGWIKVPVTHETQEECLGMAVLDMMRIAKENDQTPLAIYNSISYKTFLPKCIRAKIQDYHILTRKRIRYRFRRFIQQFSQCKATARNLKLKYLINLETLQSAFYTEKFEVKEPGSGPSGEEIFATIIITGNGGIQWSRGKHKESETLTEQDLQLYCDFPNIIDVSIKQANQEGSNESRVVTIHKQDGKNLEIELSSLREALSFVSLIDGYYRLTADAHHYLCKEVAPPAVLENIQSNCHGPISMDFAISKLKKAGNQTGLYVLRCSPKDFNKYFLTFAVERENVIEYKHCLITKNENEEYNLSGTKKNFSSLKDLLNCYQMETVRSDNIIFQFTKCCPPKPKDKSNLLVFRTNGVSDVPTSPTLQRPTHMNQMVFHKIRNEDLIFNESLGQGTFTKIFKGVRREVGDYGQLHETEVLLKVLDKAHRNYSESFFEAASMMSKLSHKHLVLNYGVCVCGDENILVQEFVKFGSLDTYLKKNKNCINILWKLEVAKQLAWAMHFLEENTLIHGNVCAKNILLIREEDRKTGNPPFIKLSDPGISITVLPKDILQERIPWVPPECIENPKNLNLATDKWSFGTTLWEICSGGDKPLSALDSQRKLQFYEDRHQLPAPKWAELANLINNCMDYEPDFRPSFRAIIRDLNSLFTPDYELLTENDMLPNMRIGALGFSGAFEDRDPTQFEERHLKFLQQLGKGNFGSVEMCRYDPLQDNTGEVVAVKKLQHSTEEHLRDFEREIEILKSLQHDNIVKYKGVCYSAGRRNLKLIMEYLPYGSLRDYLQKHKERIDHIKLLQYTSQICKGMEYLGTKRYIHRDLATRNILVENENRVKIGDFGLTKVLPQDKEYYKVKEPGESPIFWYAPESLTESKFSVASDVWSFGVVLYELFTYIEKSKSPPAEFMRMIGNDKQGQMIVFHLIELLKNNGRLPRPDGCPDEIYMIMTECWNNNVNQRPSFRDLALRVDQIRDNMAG

As for `Cc1cc(Nc2cc(N3CC(F)(C4CC4)C3)nc(O[C@H]3CCN(C(=O)c4cc(Cl)ccc4F)C3)n2)[nH]n1` [Compound I-3, (S)-(5-chloro-2-fluorophenyl)(3-(4-(3-cyclopropyl-3-fluoroazetidin-1-yl)-6-(3-methyl-1H-pyrazol-5-ylamino)pyrimidin-2-yloxy)pyrrolidin-1-yl)methanone], the figures for the Ki on Aurora-1 (Aurora B) and at JAK3 were under 25 nM and under 250 nM, respectively.
Turning to `Cc1cc(Nc2cc(N3CCC3)nc(O[C@H]3CCN(C(=O)OC(C)(C)C)C3)n2)[nH]n1` [Compound I-1, (S)-3-[4-Azetidin-1-yl-6-(5-methyl-2H-pyrazol-3-ylamino)-pyrimidin-2-yloxy]-pyrrolidine-1-carboxylic acid tert-butyl ester], the Ki was under 1000 nM at human Itk kinase, under 250 nM on JAK-2 enzyme and under 50 nM at Aurora-2 (Aurora A).
